# Assay results taken from ChEMBL document CHEMBL1811886 (J Med Chem, 2011).
# How the values were obtained:
# [1] = Systemic clearance in fasted Sprague-Dawley rat at 1 mg/kg, iv after 6 to 24 hrs by LC-MS/MS analysis; type: ADME, organism-based; set-up: dose 1 mg/kg, route intravenous; conditions: in vivo
# Histamine H3 receptor [2] = molecular target: T1, Histamine H3 receptor (Rattus norvegicus, UniProt Q9QYN8); test: Displacement of [3H]NAMH from rat histamine H3 receptor expressed in CHO cells; type: cell-based
# Histamine H3 receptor [3] = molecular target: T2, Histamine H3 receptor (Homo sapiens, UniProt Q9Y5N1); test: Displacement of [3H]NAMH from human histamine H3 receptor expressed in CHO cells; type: cell-based
# [4] = Oral bioavailability in fasted Sprague-Dawley rat at 5 mg/kg after 6 hrs by LC-MS/MS analysis; type: ADME, organism-based; conditions: in vivo
# [5] = Ratio of drug uptake in brain to plasma of fasted Sprague-Dawley rat at 1 mg/kg, iv after 6 to 24 hrs by LC-MS/MS analysis; type: ADME, organism-based; set-up: dose 1 mg/kg, route intravenous; conditions: read-out: BPR
# [6] = Terminal half life in fasted Sprague-Dawley rat at 1 mg/kg, iv after 6 to 24 hrs by LC-MS/MS analysis; type: ADME, organism-based; set-up: dose 1 mg/kg, route intravenous; conditions: in vivo, read-out: beta t1/2 (converted)
# [7] = molecular target: Voltage-gated inwardly rectifying potassium channel KCNH2 (Homo sapiens, UniProt Q12809); test: Inhibition of recombinant human ERG channel expressed in human HEK 293 cells by patch clamp assay; type: cell-based, HEK293
# Histamine H3 receptor [8] = molecular target: T2, Histamine H3 receptor; test: Inverse agonist activity at human histamine H3 receptor assessed as inhibition of R-alpha-methylhistamine induced [35S]GTPgammaS binding; type: functional
# [9] = Oral bioavailability in fasted Sprague-Dawley rat at 10 mg/kg after 24 hrs by LC-MS/MS analysis; type: ADME, organism-based; conditions: in vivo
# Histamine H3 receptor [10] = molecular target: T1, Histamine H3 receptor; test: Inverse agonist activity at rat histamine H3 receptor assessed as inhibition of R-alpha-methylhistamine induced [35S]GTPgammaS binding; type: functional
# Histamine H3 receptor [11] = molecular target: T2, Histamine H3 receptor; test: Antagonist activity against human histamine H3 receptor assessed as inhibition of R-alpha-methylhistamine induced [35S]GTPgammaS binding; type: functional
# Rattus norvegicus = test: Inhibition of RAMH-induced dipsogenia in Long Evans rat administered as po 15 mins prior to RAMH challenge; type: functional
# [12] = molecular target: Histamine H2 receptor (Homo sapiens) (UniProt P25021); test: Inhibition of human histamine H2 receptor at 10 uM
# [13] = molecular target: Histamine H1 receptor (Homo sapiens) (UniProt P35367); test: Inhibition of human histamine H1 receptor at 10 uM
# [14] = molecular target: Histamine H4 receptor (Homo sapiens) (UniProt Q9H3N8); test: Inhibition of human histamine H4 receptor at 10 uM
# T2 sequence (Q9Y5N1 whole entry): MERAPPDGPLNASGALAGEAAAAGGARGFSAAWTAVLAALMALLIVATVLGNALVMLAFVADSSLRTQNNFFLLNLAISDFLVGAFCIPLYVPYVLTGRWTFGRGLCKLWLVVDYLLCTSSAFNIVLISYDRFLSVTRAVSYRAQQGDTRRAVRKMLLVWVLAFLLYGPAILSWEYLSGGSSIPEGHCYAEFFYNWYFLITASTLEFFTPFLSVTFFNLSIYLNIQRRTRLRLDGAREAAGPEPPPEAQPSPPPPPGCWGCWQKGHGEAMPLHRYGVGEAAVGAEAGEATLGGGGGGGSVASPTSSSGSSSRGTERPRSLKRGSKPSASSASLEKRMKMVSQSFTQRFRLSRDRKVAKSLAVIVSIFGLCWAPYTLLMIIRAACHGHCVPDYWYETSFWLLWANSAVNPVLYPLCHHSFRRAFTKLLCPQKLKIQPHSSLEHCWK
# T1 sequence (Q9QYN8 whole entry): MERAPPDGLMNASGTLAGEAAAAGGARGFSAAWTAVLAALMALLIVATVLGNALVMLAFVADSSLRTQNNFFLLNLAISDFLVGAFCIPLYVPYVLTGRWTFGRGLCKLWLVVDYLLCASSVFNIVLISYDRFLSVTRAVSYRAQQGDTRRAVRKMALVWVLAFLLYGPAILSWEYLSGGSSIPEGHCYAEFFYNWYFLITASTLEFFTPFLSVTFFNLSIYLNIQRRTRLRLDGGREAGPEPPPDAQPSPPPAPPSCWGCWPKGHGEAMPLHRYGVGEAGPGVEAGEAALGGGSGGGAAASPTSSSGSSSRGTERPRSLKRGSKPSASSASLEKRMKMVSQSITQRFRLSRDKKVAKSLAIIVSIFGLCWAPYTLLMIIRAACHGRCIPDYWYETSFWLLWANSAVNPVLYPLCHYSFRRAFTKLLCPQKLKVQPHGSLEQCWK
# Sequence of Voltage-gated inwardly rectifying potassium channel KCNH2 (Q12809 whole entry): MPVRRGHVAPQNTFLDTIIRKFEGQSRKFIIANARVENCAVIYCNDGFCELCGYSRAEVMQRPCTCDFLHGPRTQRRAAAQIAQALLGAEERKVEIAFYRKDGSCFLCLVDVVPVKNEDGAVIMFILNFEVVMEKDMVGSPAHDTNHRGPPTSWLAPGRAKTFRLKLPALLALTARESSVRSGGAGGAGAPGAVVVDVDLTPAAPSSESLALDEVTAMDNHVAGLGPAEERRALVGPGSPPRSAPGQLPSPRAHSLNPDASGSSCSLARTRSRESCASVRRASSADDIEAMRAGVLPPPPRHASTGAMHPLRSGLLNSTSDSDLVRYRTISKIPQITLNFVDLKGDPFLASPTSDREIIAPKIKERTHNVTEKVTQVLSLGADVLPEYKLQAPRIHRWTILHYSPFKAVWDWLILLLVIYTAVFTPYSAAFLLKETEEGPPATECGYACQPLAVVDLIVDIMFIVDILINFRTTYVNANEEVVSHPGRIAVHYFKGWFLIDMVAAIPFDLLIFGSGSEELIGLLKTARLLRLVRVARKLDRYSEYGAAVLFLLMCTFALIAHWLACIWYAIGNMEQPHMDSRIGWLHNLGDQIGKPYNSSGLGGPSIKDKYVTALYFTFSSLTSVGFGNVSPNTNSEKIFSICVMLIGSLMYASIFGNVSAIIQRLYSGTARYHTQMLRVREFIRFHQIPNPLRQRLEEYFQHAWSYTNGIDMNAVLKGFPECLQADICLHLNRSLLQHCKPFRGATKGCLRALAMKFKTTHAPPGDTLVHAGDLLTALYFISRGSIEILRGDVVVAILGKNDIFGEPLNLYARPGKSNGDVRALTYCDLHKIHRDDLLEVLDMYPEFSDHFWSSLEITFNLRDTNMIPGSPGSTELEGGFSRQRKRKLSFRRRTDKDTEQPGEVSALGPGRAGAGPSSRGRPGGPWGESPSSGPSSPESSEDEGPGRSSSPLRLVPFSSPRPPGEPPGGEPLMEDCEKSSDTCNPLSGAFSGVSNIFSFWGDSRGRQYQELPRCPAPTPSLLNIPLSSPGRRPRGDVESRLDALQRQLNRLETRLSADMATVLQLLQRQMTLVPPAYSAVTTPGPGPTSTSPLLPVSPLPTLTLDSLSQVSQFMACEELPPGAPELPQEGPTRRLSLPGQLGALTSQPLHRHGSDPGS
# Sequence of Histamine H2 receptor (Homo sapiens) (P25021 whole entry): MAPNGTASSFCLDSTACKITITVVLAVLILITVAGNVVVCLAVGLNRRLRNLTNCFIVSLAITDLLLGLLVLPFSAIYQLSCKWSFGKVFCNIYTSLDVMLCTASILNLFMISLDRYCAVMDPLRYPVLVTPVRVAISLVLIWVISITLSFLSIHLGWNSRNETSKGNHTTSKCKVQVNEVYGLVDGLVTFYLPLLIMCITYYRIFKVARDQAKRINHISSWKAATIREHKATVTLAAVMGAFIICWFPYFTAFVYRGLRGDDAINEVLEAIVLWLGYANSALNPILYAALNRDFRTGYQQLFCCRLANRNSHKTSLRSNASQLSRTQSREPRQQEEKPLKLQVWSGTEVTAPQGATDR
# Sequence of Histamine H1 receptor (Homo sapiens) (P35367 whole entry): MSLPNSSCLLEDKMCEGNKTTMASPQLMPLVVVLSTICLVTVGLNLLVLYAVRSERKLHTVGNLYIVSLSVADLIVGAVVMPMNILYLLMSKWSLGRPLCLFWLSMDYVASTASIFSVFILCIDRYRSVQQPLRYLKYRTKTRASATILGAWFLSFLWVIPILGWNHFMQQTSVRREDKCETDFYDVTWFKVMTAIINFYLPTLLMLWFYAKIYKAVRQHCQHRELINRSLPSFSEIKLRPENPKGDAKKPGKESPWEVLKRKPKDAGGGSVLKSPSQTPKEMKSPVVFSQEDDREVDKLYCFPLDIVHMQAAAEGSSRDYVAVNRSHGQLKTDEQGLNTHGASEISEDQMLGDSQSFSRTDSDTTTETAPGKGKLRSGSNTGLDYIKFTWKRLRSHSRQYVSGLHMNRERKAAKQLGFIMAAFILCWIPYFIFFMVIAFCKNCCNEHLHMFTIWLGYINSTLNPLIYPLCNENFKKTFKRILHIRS
clearance [1],Ki (Histamine H3 receptor [2]),Ki (Histamine H3 receptor [3]),bioavailability [4],Kp [5],half-life [6],EC50 (Histamine H3 receptor [8]),bioavailability [9],EC50 (Histamine H3 receptor [10]),Kb (Histamine H3 receptor [11]),inhibition [12],inhibition [13],inhibition [14],Structure (SMILES),IC50 [7],ED50 (Rattus norvegicus)
258 mL/min/kg,7.6 nM,4.8 nM,5%,2.1,18 min,–,–,–,–,–,–,–,CC(C)n1nc(-c2ccc(OCCCN3CCC[C@H]3C)cc2)ccc1=O,–,–
9.6 mL/min/kg,8.5 nM,2.8 nM,–,1.8,60 min,1.1 nM,24%,2.1 nM,0.4 nM,–,–,–,C[C@@H]1CCCN1CCCOc1ccc(-c2cn[nH]c(=O)c2)cc1,9.5 µM,0.03 mg/kg
–,–,–,–,–,–,–,–,–,0.4 nM,< 11%,< 11%,< 11%,C[C@@H]1CCCN1CCCOc1ccc(-c2ccc(=O)[nH]n2)cc1,–,–
–,427 nM,–,–,–,–,–,–,–,–,–,–,–,Cn1nc(-c2ccc(OCCCN3CCC[C@@H]3CO)cc2)ccc1=O,–,–
